Measured values taken from US10751338B2, “Sustained-release voriconazole-containing thermogel and uses thereof” (priority 2017, dated 2020).
Converted amounts (≈) assume the structure as drawn.

Legend:
[1] = In vitro release of voriconazole from the thermogel (Example 5); assay type: physicochemical
Experimental: Each formulation was tested in triplicate.
The injection volume was 100 μl.

[2] = system: common equine fungal pathogens; conditions: target MIC; cited from earlier work
[3] = Ex-vivo trans-corneal fluorescein permeation, Franz diffusion cell (Example 4); assay type: in vitro ADME, horse; conditions: 10 μM sodium fluorescein, 6 hours, 37° C.
Experimental: Fresh equine corneas used in the experiment were obtained from horses enrolled in terminal laboratories performed at the AULATH. Corneoscleral buttons (16 mm diameter) were dissected using standard eye bank technique within 2 hours of enucleation. Fluorescent permeation experiments using a Franz diffusion cell method were performed to examine the integrity of the epithelial barrier function during the times studied (2 and 6 hours). Corneas were mounted horizontally between the donor and the receiving compartments of the diffusion cells (exposure window 0.64 cm^2), which were maintained at 37° C. (see FIGS. 8A and 8B).
Samples (1 ml PBS pH 7.4) were removed from the receiving compartment hourly and replaced with fresh receiving fluid. The fluorescent intensities of the receiving solution samples were analyzed using a microplate spectrofluorometer (Fluostar, BMG Labtech, Ortenberg, Germany) and a 96 well plate (Costar, Corning, N.Y.). A standard solution of NaF was prepared in PBS with a concentration range of 30 μg/ml to 0.12 μg/ml. Fluorescence was determined in a spectrofluorometer at excitation and emission wavelengths of 490 nm and 512 nm, respectively. All groups were tested in triplicate. The results were expressed as mean value±standard error of the mean (SEM).

C[C@@H](c1ncncc1F)[C@](O)(Cn1cncn1)c1ccc(F)cc1F [Group 6, voriconazole]
Day by which voriconazole was undetectable ([1]; PBS samples): ≤ 6 days
UC24 ([1]; mean, PBS, 34.5° C.): 4133 µg·days/mL
UC28 ([1]; mean, PBS, 34.5° C.): 4135 µg·days/mL
K release ([1]; mean, first-order release): 0.7558 day⁻¹

C[C@@H](c1ncncc1F)[C@](O)(Cn1cncn1)c1ccc(F)cc1F [voriconazole]
MIC [2]: 0.5 µg/mL (≈ 1.43 µM)

O=C1OC2(c3ccc(O)cc3Oc3cc(O)ccc32)c2ccccc21 [fluorescein, sodium fluorescein]
Fluorescein concentration in receiving compartment versus negative control [3]: not significantly different
